Active and inactive are the calls of the source. The rule behind the calls is not given here.
Assays:
Hep 3B2 = assay: Antiproliferative activity against human Hep3B cells measured after 72 hrs by MTT assay; format: functional, cell-based
HT-29 [1] = assay: Antiproliferative activity against human HT-29 cells over expressing GLUT1 measured after 72 hrs by MTT assay; format: functional, cell-based; settings: HT-29, 72 h
MCF7 = assay: Antiproliferative activity against human MCF7 cells over expressing GLUT1 measured after 72 hrs by MTT assay; format: functional, cell-based; settings: MCF7, 72 h
[2] = Selectivity ratio of IC50 for human Hep3B cells to IC50 for human HT-29 cells; format: functional
[3] = Selectivity ratio of IC50 for human Hep3B cells to IC50 for human MCF7 cells; format: functional
HT-29 [4] = assay: Antiproliferative activity against human HT-29 cells over expressing GLUT1 assessed as cell viability at 4 uM measured after 48 hrs by MTT assay relative to control; format: functional; settings: read-out: Activity
HT-29 [5] = assay: Antiproliferative activity against human HT-29 cells over expressing GLUT1 assessed as cell viability at 4 uM measured after 48 hrs in presence of GLUT1-specific inhibitor quercetin by MTT assay relative to control; format: functional; settings: read-out: Activity
HT-29 [6] = assay: Antiproliferative activity against human HT-29 cells over expressing GLUT1 assessed as cell viability at 8 uM measured after 48 hrs in presence of GLUT1-specific inhibitor quercetin by MTT assay relative to control; format: functional; settings: read-out: Activity
Tubulin (Homo sapiens) [7] = target: T1, Tubulin (Homo sapiens) (UniProt P68371+Q9H4B7+P0DPH7+P68366+Q13509+Q71U36+P04350+Q3ZCM7+P07437+P68363+Q9BQE3+Q6PEY2+Q13885+Q9BVA1+Q9BUF5); assay: Inhibition of tubulin polymerization in human A549 cells assessed as appearance of wrapped microtubule around nucleus at 0.766 uM measured after 24 hrs by immunofluorescence confocal microscopic analysis; format: cell-based
Tubulin (Sus scrofa) = Tubulin (Sus scrofa) (UniProt P02554+P02550); assay: Inhibition of porcine brain tubulin polymerization assessed as inhibition of microtubule polymerization measured at 1 min interval for 90 mins by microplate reader method; settings: dose 12.5-25 µM, DDE = dose-dependent effect
[8] = Cytotoxicity against HUVEC measured after 72 hrs by MTT assay; format: toxicity, cell-based; settings: human, HUVEC cells
Tubulin (Homo sapiens) [9] = target: T1, Tubulin (Homo sapiens); assay: Inhibition of tubulin polymerization in human A549 cells assessed as appearance of short microtubule at 0.766 uM measured after 24 hrs by immunofluorescence confocal microscopic analysis; format: cell-based
HT-29 [10] = assay: Antiproliferative activity against human HT-29 cells over expressing GLUT1 assessed as cell viability at 8 uM measured after 48 hrs by MTT assay relative to control; format: functional; settings: read-out: Activity
HT-29 [11] = assay: Antiproliferative activity against human HT-29 cells over expressing GLUT1 assessed as cell viability measured after 48 hrs by MTT assay relative to control; format: functional
HT-29 [12] = assay: Antiproliferative activity against human HT-29 cells over expressing GLUT1 assessed as cell viability measured after 48 hrs in presence of GLUT1-specific inhibitor quercetin by MTT assay relative to control; format: functional

Sequence of Tubulin (Sus scrofa) (P02550 whole entry, looked up): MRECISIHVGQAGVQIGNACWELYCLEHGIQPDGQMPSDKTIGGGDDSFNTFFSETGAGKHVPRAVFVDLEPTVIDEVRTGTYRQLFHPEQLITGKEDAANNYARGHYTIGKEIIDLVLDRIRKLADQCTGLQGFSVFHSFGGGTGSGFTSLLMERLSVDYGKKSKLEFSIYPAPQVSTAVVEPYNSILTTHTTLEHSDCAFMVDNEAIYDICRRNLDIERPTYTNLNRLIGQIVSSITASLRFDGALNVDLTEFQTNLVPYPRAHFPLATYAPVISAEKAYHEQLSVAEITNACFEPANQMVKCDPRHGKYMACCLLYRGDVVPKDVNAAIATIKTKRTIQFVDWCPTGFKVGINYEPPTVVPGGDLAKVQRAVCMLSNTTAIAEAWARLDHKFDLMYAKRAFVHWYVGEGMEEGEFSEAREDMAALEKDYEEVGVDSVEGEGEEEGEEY
Sequence of Tubulin (Sus scrofa) (P02554 whole entry, looked up): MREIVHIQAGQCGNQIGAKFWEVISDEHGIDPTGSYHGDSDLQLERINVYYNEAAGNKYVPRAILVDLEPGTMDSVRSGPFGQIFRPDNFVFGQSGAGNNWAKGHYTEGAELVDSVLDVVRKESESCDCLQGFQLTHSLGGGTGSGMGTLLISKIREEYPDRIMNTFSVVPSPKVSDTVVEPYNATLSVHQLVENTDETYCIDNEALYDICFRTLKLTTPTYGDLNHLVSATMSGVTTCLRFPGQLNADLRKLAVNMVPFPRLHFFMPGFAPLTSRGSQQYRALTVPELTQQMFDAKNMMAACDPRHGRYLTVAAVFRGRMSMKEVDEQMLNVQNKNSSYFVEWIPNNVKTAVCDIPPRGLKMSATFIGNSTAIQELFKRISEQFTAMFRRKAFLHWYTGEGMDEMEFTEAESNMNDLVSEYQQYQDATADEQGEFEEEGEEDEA

Row | SMILES | IC50 (HT-29 [1]) | IC50 (MCF7) | IC50 (Hep 3B2) | Ratio IC50 [2] | Ratio IC50 [3] | other results
1 | COc1cc2c(c(OC)c1OC)-c1ccc(OC)c(=O)cc1[C@@H](NC(=O)CCCC(=O)OC[C@H]1OC(O)[C@@H](O)[C@@H](O)[C@@H]1O)CC2 (some centres not stated) | > 10 µM | > 10 µM | > 10 µM |  |  | 
2 | COc1cc2c(c(OC)c1OC)-c1ccc(OC)c(=O)cc1[C@@H](NC(=O)CCCCC(=O)O[C@H]1[C@H](O)[C@@H](CO)OC(O)[C@@H]1O)CC2 (some centres not stated) | > 10 µM | > 10 µM | > 10 µM |  |  | 
3 | COc1cc2c(c(OC)c1OC)-c1ccc(OC)c(=O)cc1[C@@H](NC(=O)CCCCC(=O)OC[C@H]1OC(O)[C@@H](O)[C@@H](O)[C@@H]1O)CC2 (some centres not stated) | > 10 µM | > 10 µM | > 10 µM |  |  | 
4 | COc1cc2c(c(OC)c1OC)-c1ccc(OC)c(=O)cc1[C@@H](NC(=O)CCCC(=O)OC[C@H]1OC(O)[C@H](O)[C@@H](O)[C@@H]1O)CC2 (some centres not stated) | 4.14 µM | > 10 µM | > 10 µM |  |  | 
5 | COc1cc2c(c(OC)c1OC)-c1ccc(OC)c(=O)cc1[C@@H](NC(=O)CCCCC(=O)OC[C@H]1OC(O)[C@H](O)[C@@H](O)[C@@H]1O)CC2 (some centres not stated) | 9.73 µM | > 10 µM | > 10 µM |  |  | 
6 | COc1cc2c(c(OC)c1OC)-c1ccc(OC)c(=O)cc1[C@@H](NC(=O)COCC(=O)OC[C@H]1OC(O)[C@H](O)[C@@H](O)[C@@H]1O)CC2 (some centres not stated) | 0.24 µM | 3.08 µM | 4.57 µM | 19.04 | 1.48 | 
7 | COc1cc2c(c(OC)c1OC)-c1ccc(OC)c(=O)cc1[C@@H](NC(=O)CCCC(=O)O[C@H]1[C@H](O)[C@@H](CO)OC(O)[C@@H]1O)CC2 (some centres not stated) | 6.47 µM | 7.17 µM | 8.91 µM | 1.38 | 1.24 | 
8 | COc1cc2c(c(OC)c1OC)-c1ccc(OC)c(=O)cc1[C@@H](NC(=O)CSCC(=O)OC[C@H]1OC(O)[C@@H](O)[C@@H](O)[C@@H]1O)CC2 (some centres not stated) | 2.11 µM | 6.05 µM | > 10 µM |  |  | 
9 | COc1cc2c(c(OC)c1OC)-c1ccc(OC)c(=O)cc1[C@@H](NC(C)=O)CC2 [COLCHICINE] |  | 0.043 µM | 0.14 µM |  |  | Activity (HT-29 [11]): 12.7%; Activity (HT-29 [12]): 14.8%; IC50 at 72 h [8]: 0.012 µM
10 | COc1cc2c(c(OC)c1OC)-c1ccc(OC)c(=O)cc1[C@@H](NC(=O)CSCC(=O)OC[C@H]1OC(O)[C@H](O)[C@@H](O)[C@@H]1O)CC2 (some centres not stated) | 1.16 µM | 3.56 µM | 9.26 µM | 7.98 | 2.6 | 

Now from value to molecule, other results behind:

Row | IC50 (HT-29 [1]) | IC50 (MCF7) | SMILES | IC50 (Hep 3B2) | Ratio IC50 [2] | Ratio IC50 [3] | other results
11 | 0.83 µM | 1.2 µM | COc1cc2c(c(OC)c1OC)-c1ccc(OC)c(=O)cc1[C@@H](NC(=O)COCC(=O)O[C@H]1[C@H](O)[C@@H](CO)OC(O)[C@@H]1O)CC2 (some centres not stated) | > 10 µM |  |  | 
12 |  | 0.67 µM | COc1cc2c(c(OC)c1OC)-c1ccc(OC)c(=O)cc1[C@@H](NC(=O)CCC(=O)OC[C@H]1OC(O)[C@@H](O)[C@@H](O)[C@@H]1O)CC2 (some centres not stated) | 2.91 µM |  | 4.34 | 
13 | 0.79 µM | 0.65 µM | COc1cc2c(c(OC)c1OC)-c1ccc(OC)c(=O)cc1[C@@H](NC(=O)CSCC(=O)O[C@H]1[C@H](O)[C@@H](CO)OC(O)[C@@H]1O)CC2 (some centres not stated) | 8.56 µM | 10.84 | 13.17 | viability at 4 µM (HT-29 [4]): 13.2%; viability at 4 µM (HT-29 [5]): 22.8%; viability at 8 µM (HT-29 [6]): 20.1%; inhibition (Tubulin (Homo sapiens) [7]): Active; inhibition (Tubulin (Sus scrofa)): Dde; IC50 at 72 h [8]: 1.88 µM; inhibition (Tubulin (Homo sapiens) [9]): Active; viability at 8 µM (HT-29 [10]): 12.5%
14 | 1.09 µM | 1.15 µM | COc1cc2c(c(OC)c1OC)-c1ccc(OC)c(=O)cc1[C@@H](NC(=O)CCC(=O)OC[C@H]1OC(O)[C@H](O)[C@@H](O)[C@@H]1O)CC2 (some centres not stated) | 6.35 µM | 5.83 | 5.52 | 
15 | 2.93 µM | 2.2 µM | COc1cc2c(c(OC)c1OC)-c1ccc(OC)c(=O)cc1[C@@H](NC(=O)COCC(=O)OC[C@H]1OC(O)[C@@H](O)[C@@H](O)[C@@H]1O)CC2 (some centres not stated) | 6.43 µM | 2.19 | 2.92 | 
16 | 0.98 µM | 0.76 µM | COc1cc2c(c(OC)c1OC)-c1ccc(OC)c(=O)cc1[C@@H](NC(=O)CCC(=O)O[C@H]1[C@H](O)[C@@H](CO)OC(O)[C@@H]1O)CC2 (some centres not stated) | 7.03 µM | 7.17 | 9.25 | 

— ChEMBL document CHEMBL5154756 (Bioorg Med Chem, 2022)
